These results are taken from US11465987B2, “Compounds for treatment of cancer” (ONCTERNAL THERAPEUTICS, INC., priority 2012, dated 2022).

Like-named read-outs stand apart in the source and are kept apart here.

Data set [1] can be described thus: Pharmacokinetic study in Sprague-Dawley rats. The conditions noted are these: rat, oral.
In data set [2] the test system is A375 human melanoma cell line. Put plainly: Cytotoxicity (SRB) assay, A375. The class given is cell-based.
Data set [3] deals with PPC-1 human prostate cancer cell line. Put plainly: Cytotoxicity (SRB) assay, PPC-1. The class given is cell-based. The text has this: (§1) Cells were stained with SRB solution.
Data set [4] concerns PC-3 human prostate cancer cell line. Put plainly: cells.
From the text: as §1

For data set [5], the system named is LNCaP human prostate cancer cell line. Put plainly: Cytotoxicity (SRB) assay, LNCaP. The class given is cell-based.
From the text: as §1

Data set [6] deals with WM-164 human melanoma cell line. Kind of data set: Cytotoxicity (SRB) assay, WM-164. The format is cell-based.
Data set [7] concerns DU 145 human prostate cancer cell line. Kind of data set: Cytotoxicity (SRB) assay, DU 145. The class given is cell-based.
From the text: as §1

Data set [8] has as its system B16-F1 mouse melanoma cell line. Put plainly: Cytotoxicity (SRB) assay, B16-F1. The class given is cell-based.
The subject of data set [9] is melanoma and prostate cancer cell lines. Kind of data set: Antiproliferative activity summarised over the cell line panel (range or average). The format is cell-based.
Data set [10] has as its system MDA-MB-435/LCCMDR1 multidrug-resistant melanoma cells. Put plainly: Cytotoxicity (SRB) assay, MDA-MB-435/LCCMDR1. The format is cell-based. The conditions noted are these: for IC50: Homo sapiens.
Data set [11] deals with MDA-MB-435 parental nonresistant melanoma cells. Put plainly: Cytotoxicity (SRB) assay, MDA-MB-435. The class given is cell-based. The conditions noted are these: Homo sapiens.
The test system of data set [12] is PC-3 xenograft. Kind of data set: In vivo PC-3 prostate tumor xenograft. The conditions noted are these: PC-3, 50 mg/kg i.p. daily; control 680 mm^3.
Setting [13] is: Homo sapiens, A-375, Table 11, read-out: IC50, A375.
Where [14] appears, read: Homo sapiens, PPC-1, Table 11, read-out: IC50, PPC-1.
Where [15] appears, read: Homo sapiens, LNCaP, Table 11, read-out: IC50, LNCaP.
The mark [16] stands for this setting: Homo sapiens, WM164, Table 11, read-out: IC50, WM164.
Setting [17] is: Homo sapiens, DU-145, Table 11, read-out: IC50, Du 145.
The mark [18] stands for this setting: Mus musculus, B16-F1, Table 11, read-out: IC50, B16-F1.
Setting [19] is: Tables 11-13, read-out: IC50 (average of all seven cell lines).
[20] abbreviates: Homo sapiens, A-375, Table 12, read-out: IC50 ± SEM, A375 (converted).
Where [21] appears, read: Homo sapiens, read-out: IC50 ± SEM, PC-3, Table 12.
[22] abbreviates: Homo sapiens, LNCaP, Table 12, read-out: IC50 ± SEM, LNCaP (converted).
[23] abbreviates: Homo sapiens, WM164, Table 12, read-out: IC50 ± SEM, WM164 (converted).
The mark [24] stands for this setting: Mus musculus, B16-F1, Table 12, read-out: IC50 ± SEM, B16-F1 (converted).
Setting [25] is: read-out: IC50 (range over tested cell lines).
Where [26] appears, read: Table 14D, read-out: IC50 ± SEM, MDA-MB-435 (converted).
[27] abbreviates: Homo sapiens, PPC-1, Table 12, read-out: IC50 ± SEM, PPC-1 (converted).
[28] abbreviates: Homo sapiens, DU-145, Table 12, read-out: IC50 ± SEM, Du 145.
Setting [29] is: Table 14D, read-out: IC50 ± SEM, MDA-MB-435/LCC-6MDR1 (converted).

Take `COc1cc(C(=O)c2csc(Nc3ccc(F)cc3)n2)cc(OC)c1OC.Cl` [5Hc, (2-(p-fluorophenylamino)thiazol-4-yl)(3,4,5-trimethoxyphenyl)methanone hydrochloride salt]: the “increased exposure (AUC) by the oral route compared to 1h” value in data set [1] is on record as “more than 4.3 fold”.
`O=S(=O)(c1ccccc1)n1ccnc1-c1ccccc1` [10a, 2-phenyl-1-(phenylsulfonyl)-1H-imidazole]: the IC50 in data set [2] (setting [13]) is over 10 µM; in [3] (setting [14]), over 10 µM; in data set [4] (read-out: IC50, PC-3, Table 11), over 10000 nM; in data set [5] (setting [15]), over 10 µM; in data set [6] (setting [16]), over 10 µM; in data set [7] (setting [17]), over 10 µM. Moreover, the IC50 in [8] (setting [18]) and in data set [9] (setting [19]) was over 10 µM throughout.
`O=S(=O)(c1ccccc1)n1ccnc1-c1ccc(OCc2ccccc2)cc1` [10j, 2-(4-(benzyloxy)phenyl)-1-(phenylsulfonyl)-1H-imidazole]: the IC50 is over 10 µM in data set [2] (setting [13]); over 10 µM in data set [3] (setting [14]); over 10000 nM in [4] (read-out: IC50, PC-3, Table 11); over 10 µM in data set [5] (setting [15]); over 10 µM in [6] (setting [16]); over 10 µM in data set [7] (setting [17]). For the same compound, the IC50 in [8] (setting [18]) and in data set [9] (setting [19]) was over 10 µM throughout.
Take `O=[N+]([O-])c1ccc(-c2nccn2S(=O)(=O)c2ccccc2)cc1` [10x, 2-(4-nitrophenyl)-1-(phenylsulfonyl)-1H-imidazole]: the IC50 was over 10 µM in [2] (setting [13]); over 10 µM in data set [3] (setting [14]); over 10000 nM in data set [4] (read-out: IC50, PC-3, Table 11); over 10 µM in data set [5] (setting [15]); over 10 µM in data set [6] (setting [16]); over 10 µM in data set [7] (setting [17]). For the same compound, the IC50 in [8] (setting [18]) and in [9] (setting [19]) was over 10 µM each time.
Consider `O=C(c1ccc(F)cc1)c1cn(S(=O)(=O)c2ccccc2)c(-c2ccc(Cl)cc2)n1` [11fb, (2-(4-chlorophenyl)-1-(phenylsulfonyl)-1H-imidazol-4-yl)(4-fluorophenyl)methanone], for which the IC50 in data set [10] (MDA-MB-435/LCCMDR1, read-out: IC50 MDR melanoma cell line) stood at 35 nM. In data set [10] (MDA-MB-435/LCCMDR1 vs MDA-MB-435), this compound had a resistance index of 0.7.
Regarding `COc1cc(C(=O)n2ccnc2-c2ccccc2)cc(OC)c1OC` [12aaa, (2-phenyl-1H-imidazol-1-yl)(3,4,5-trimethoxyphenyl)methanone], the IC50 in data set [2] (setting [13]) is over 10 µM; in data set [3] (setting [14]), over 10 µM; in data set [4] (read-out: IC50, PC-3, Table 11), over 10000 nM; in [5] (setting [15]), over 10 µM; in data set [6] (setting [16]), over 10 µM; in data set [7] (setting [17]), over 10 µM. The IC50 in data set [8] (setting [18]) and in data set [9] (setting [19]) was over 10 µM each time.
Take `COc1ccc(C(=O)n2ccnc2-c2ccccc2)cc1` [12aba, (4-methoxyphenyl)(2-phenyl-1H-imidazol-1-yl)methanone]: the IC50 in [2] (setting [13]) is over 10 µM; in data set [3] (setting [14]), over 10 µM; in [4] (read-out: IC50, PC-3, Table 11), over 10000 nM; in data set [5] (setting [15]) it was over 10 µM; in data set [6] (setting [16]), over 10 µM; in [7] (setting [17]) it was over 10 µM. Besides, the IC50 in [8] (setting [18]) and in data set [9] (setting [19]) was over 10 µM in each case.
Regarding `COc1ccc(C(=O)c2c[nH]c(-c3ccccc3)n2)cc1OC` [12ae, (3,4-dimethoxyphenyl)(2-phenyl-1H-imidazol-4-yl)methanone], the IC50 was over 10 µM in [2] (setting [13]); over 10 µM in data set [3] (setting [14]); over 10000 nM in [4] (read-out: IC50, PC-3, Table 11); over 10 µM in data set [5] (setting [15]); over 10 µM in data set [6] (setting [16]); over 10 µM in data set [7] (setting [17]). In addition, the IC50 in [8] (setting [18]) and in data set [9] (setting [19]) was over 10 µM throughout.
Turning to `O=C(c1cccc(F)c1)c1c[nH]c(-c2ccccc2)n1` [12ag, (3-fluorophenyl)(2-phenyl-1H-imidazol-4-yl)methanone], the IC50 is over 10 µM in [2] (setting [13]); over 10 µM in data set [3] (setting [14]); over 10000 nM in [4] (read-out: IC50, PC-3, Table 11); over 10 µM in [5] (setting [15]); over 10 µM in data set [6] (setting [16]); over 10 µM in [7] (setting [17]). In addition, the IC50 in data set [8] (setting [18]) and in [9] (setting [19]) was over 10 µM each time.
For the compound `COc1ccc(-c2nc(C(=O)c3cc(OC)c(OC)c(OC)c3)c[nH]2)cc1` [12ca, (2-(4-methoxyphenyl)-1H-imidazol-4-yl)(3,4,5-trimethoxyphenyl)methanone], the IC50 in data set [2] (setting [20]) is 0.03 µM; in data set [4] (setting [21]), 45 nM; in [5] (setting [22]), 0.031 µM; in [6] (setting [23]), 0.031 µM; in data set [8] (setting [24]), 0.108 µM; in data set [9] (setting [25]), 0.0079 to 0.11 µM.
With `COc1cc(C(=O)c2c[nH]c(-c3ccc(N(C)C)cc3)n2)cc(OC)c1OC` [12ga, (2-(4-(dimethylamino)phenyl)-1H-imidazol-4-yl)(3,4,5-trimethoxyphenyl)methanone], the IC50 in data set [2] (setting [20]) is 0.082 µM; in data set [4] (setting [21]) it was 92 nM; in [6] (setting [23]) it was 0.08 µM; in data set [8] (setting [24]) it was 0.361 µM; in data set [9] (setting [25]), 0.0079 to 0.11 µM.
On to `O=C(c1ccc(F)cc1)c1c[nH]c(-c2ccc(OCc3ccccc3)cc2)n1` [12jb, (2-(4-(benzyloxy)phenyl)-1H-imidazol-4-yl)(4-fluorophenyl)methanone], for which the IC50 in [2] (setting [20]) is 0.093 ± 0.008 µM; in [4] (setting [21]), 79 ± 0.4 nM; in data set [6] (setting [23]), 0.09 ± 0.012 µM; in data set [8] (setting [24]), 0.117 ± 0.016 µM. In [9] (12jb vs para-hydroxy compound 12kb), the “increase in activity compared with 12kb” value turned out to be 440 fold.
As to `O=C(c1ccc(F)cc1)c1c[nH]c(-c2ccc(O)cc2)n1` [12kb], the IC50 in data set [2] (Table 12, read-out: IC50 ± SEM, A375 (converted)) was 10 µM; in data set [3] (Table 12, read-out: IC50 ± SEM, PPC-1 (converted)), over 10 µM; in [4] (read-out: IC50 ± SEM, PC-3, Table 12), over 10000 nM; in [5] (Table 12, read-out: IC50 ± SEM, LNCaP (converted)), 10 µM; in data set [6] (Table 12, read-out: IC50 ± SEM, WM164 (converted)) it was over 10 µM; in data set [7] (Table 12, read-out: IC50 ± SEM, Du 145), over 10 µM. Moreover, in data set [8] (Table 12, read-out: IC50 ± SEM, B16-F1 (converted)), the IC50 was over 10 µM.
As to `COc1cc(C(=O)c2c[nH]c(-c3ccc(C(C)C)cc3)n2)cc(OC)c1OC` [12v, (2-(4-isopropylphenyl)-1H-imidazol-4-yl)(3,4,5-trimethoxyphenyl)methanone], the IC50 in [11] (setting [26]) is 0.312 µM; in [3] (setting [27]) it was 0.173 µM; in [4] (setting [21]), 136 nM; in data set [5] (setting [22]), 0.171 µM; in data set [7] (setting [28]), 0.482 µM; in data set [10] (setting [29]), 250 nM.
Turning to `COc1cc(C(=O)c2c[nH]c(-c3ccc(C(C)(C)C)cc3)n2)cc(OC)c1OC` [12w, (2-(4-tert-butylphenyl)-1H-imidazol-4-yl)(3,4,5-trimethoxyphenyl)methanone], the IC50 is 3.69 µM in data set [11] (setting [26]); 0.294 µM in [3] (setting [27]); 436 nM in [4] (setting [21]); 0.423 µM in data set [5] (setting [22]); 1.7 µM in data set [7] (setting [28]); 3070 nM in [10] (setting [29]).
Regarding `COc1cc(Cc2nc(-c3ccccc3)c(-c3ccccc3)[nH]2)cc(OC)c1OC` [102 e, 4,5-Diphenyl-2-(3,4,5-trimethoxybenzyl)-1H-imidazole], the IC50 is over 50 µM in data set [11] (Table 14C, melanoma cells, read-out: IC50 ± SEM MDA-MB-435) and over 50000 nM in [10] (Table 14C, melanoma cells, read-out: IC50 ± SEM MDA-MB-435/LCC-6MDR1).
Consider `COc1cc(C(=O)c2csc(-c3ccccc3)n2)cc(OC)c1OCCN1C(=O)c2ccccc2C1=O` [compound 20], for which the IC50 in data set [2] (Homo sapiens, A-375, Table 6A, read-out: IC50 ± SEM, A375 (converted)) is 2.3 µM; in data set [3] (Homo sapiens, PPC-1, Table 6A, read-out: IC50 ± SEM, PPC-1 (converted)) it was 0.633 µM; in data set [4] (Homo sapiens, read-out: IC50 ± SEM, PC-3, Table 6A), over 10000 nM; in data set [5] (Homo sapiens, LNCaP, Table 6A, read-out: IC50 ± SEM, LNCaP (converted)), 1.45 µM; in data set [6] (Homo sapiens, WM164, Table 6A, read-out: IC50 ± SEM, WM164 (converted)), 1.3 µM; in data set [7] (Homo sapiens, DU-145, Table 6A, read-out: IC50 ± SEM, DU 145), 0.642 µM. Moreover, in data set [8] (Mus musculus, B16-F1, Table 6A, read-out: IC50 ± SEM, B16-F1 (converted)), the IC50 was 3.1 µM.
Take `O=C(c1ccc2[nH]ccc2c1)c1csc(-c2cc3ccccc3[nH]2)n1` [compound 21, (2-(1H-indol-2-yl)thiazol-4-yl)(1H-indol-5-yl)methanone]: the “tumor volume at day 21” value in data set [12] came out at 331 mm^3.
